SMILES strings stand for the structures.

Holding throughout (assay type): functional
Test [1] deals with Rattus norvegicus. Nature of the test: Elimination of D-xylose from 15 days old Sprague-Dawley suckling rat urine at 4 mg, po.
Test [2] concerns Rattus norvegicus. Nature of the test: Elimination of D-xylose from 18 days old Sprague-Dawley suckling rat urine at 4 mg, po.
In test [3] the test system is Rattus norvegicus. Nature of the test: Elimination of D-xylose from 30 days old Sprague-Dawley suckling rat urine at 4 mg, po.

`OC[C@H]1O[C@@H](O[C@@H]2COC(O)[C@H](O)[C@H]2O)[C@H](O)[C@@H](O)[C@H]1O` (some centres undefined): the Activity was 23.66% in test [1], 6.99% in test [2] and 3.05% in test [3].

Take `OC[C@H]1O[C@@H](O[C@H]2[C@H](O)COC(O)[C@@H]2O)[C@H](O)[C@@H](O)[C@H]1O` (some centres undefined): the Activity in test [1] came out at 23.3%; in test [2], 20.63%; in test [3] it was 19.39%.

`OC[C@H]1O[C@@H](O[C@H]2C(O)OC[C@@H](O)[C@@H]2O)[C@H](O)[C@@H](O)[C@H]1O` (some centres undefined): the figures for the Activity in test [1], in test [2] and in test [3] were 23.1%, 20.71% and 9.43%, respectively.

The values above are taken from ChEMBL document CHEMBL1149587 (2007).
